We go through three compounds from US20230330254A1 (Regeneron Pharmaceuticals, Inc., priority 2022, published 2023).

Where two headings read alike, the source gives them in different places. Where a SMILES comes first, the peptide text is derived from it. [ ]: non-standard residue; d: D form. The star is where a group is joined. Bip(2'-Et,4'-O(CH2)4NH2) = CCc1cc(OCCCCN)ccc1-c1ccc(C[C@H](N)C(=O)O)cc1; Malonyl(2,2-Me2,histaminyl) = CC(C)(C(=O)NCCc1cnc[nH]1)C(=O)*; Nva(5-(3,5-Me2Ph)) = Cc1cc(C)cc(CCC[C@H](N)C(=O)O)c1; Ala(1H-tetrazol-5-yl) = N[C@@H](Cc1nnn[nH]1)C(=O)O; αMePhe(2-F) = C[C@](N)(Cc1ccccc1F)C(=O)O

Series [1] addresses T1, human GLP1R (Homo sapiens, UniProt P43220). In words: CRE-luciferase reporter assay, HEK293/Myc-hGLP1R/Cre-Luc (Example 9). Details: engineered to express full-length human GLP1R, cynomolgus GLP1R; expressed in transfected cells; host or cells: HEK293/CRE-Luc. Type of series: cell-based. On the procedure: To test the activity of GLP1R agonist payloads and GLP1R agonist linker-payloads (LPs) in vitro, a cell-based cAMP responsive luciferase reporter assay was developed.
Cells were incubated overnight at 37° C. in 5% CO2. […] Plates were incubated for 5.5 h at 37° C. in 5% CO2. For end-point measurement, 100 μL/well of One-Glo reagent (Promega, #E6051) was added and plates were kept at room temperature for 5-10 minutes. Luciferase activity was measured on Envision Multilabel Plate Reader (Perkin Elmer) in Luminescent mode. The relative light units (RLU) values were obtained and the results were analyzed using nonlinear regression with GraphPad Prism software (GraphPad).
For orientation: In a reporter assay the amount or activity of a reporter protein is the signal.

Another series deals with HEK293/CRE-Luc cells. In words: Luciferase reporter assay, HEK293/CRE-Luc cells without hGLP1R (Example 11). The class given is cell-based, human. Particulars: Table 11; Experiment A; no hGLP1R expression. An outline of the steps: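 Counter-screen in HEK293 cells carrying CRE-driven firefly luciferase without hGLP1R; 3-fold serial dilutions of payloads or linker-payloads at 0.2% final DMSO, 4–6 h.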

A short description of series [2]: Plasma stability of payloads and linker-payloads, human plasma. Type of series: in vitro ADME. The gist of the method:
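Pooled plasma, pH adjusted to 7.4±0.1 where needed, spiked to 2 μM compound (duplicate) and incubated at 37 °C. At each time point, protein was precipitated with ACN/MeOH stop solution containing internal standards; remaining compound quantified in supernatant by LC-MS/MS.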

Series [3] addresses T1, human GLP1R. In words: Luciferase reporter assay, HEK293/CRE-Luc/hGLP1R (Example 17). The class given is cell-based. Details: engineered to express full-length human GLP1R, cynomolgus GLP1R; expressed in transfected cells; host or cells: HEK293/CRE-Luc. Particulars: HEK293/CRE-Luc/hGLP1R; for EC50: payloads and linker-payloads, experiments A-E, M2361 repeated in each, read-out: EC50. The gist of the method:
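HEK293 cells carrying a CRE-driven firefly luciferase reporter were exposed to 3-fold serial dilutions of payloads or linker-payloads (12 points, 0.2% DMSO final) for 4–6 h, then luminescence was read. EC50 came from a four-parameter logistic fit; S/N is top RLU over untreated wells, and relative potency and S/N are referenced to M2361.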

The mark [4] stands for this setting: highest RLU / RLU of untreated wells.
[5] abbreviates: relative to M2361 of the same experiment.
[6] abbreviates: ATDCs and references (Table 27).

T1 sequence (P43220 24-463): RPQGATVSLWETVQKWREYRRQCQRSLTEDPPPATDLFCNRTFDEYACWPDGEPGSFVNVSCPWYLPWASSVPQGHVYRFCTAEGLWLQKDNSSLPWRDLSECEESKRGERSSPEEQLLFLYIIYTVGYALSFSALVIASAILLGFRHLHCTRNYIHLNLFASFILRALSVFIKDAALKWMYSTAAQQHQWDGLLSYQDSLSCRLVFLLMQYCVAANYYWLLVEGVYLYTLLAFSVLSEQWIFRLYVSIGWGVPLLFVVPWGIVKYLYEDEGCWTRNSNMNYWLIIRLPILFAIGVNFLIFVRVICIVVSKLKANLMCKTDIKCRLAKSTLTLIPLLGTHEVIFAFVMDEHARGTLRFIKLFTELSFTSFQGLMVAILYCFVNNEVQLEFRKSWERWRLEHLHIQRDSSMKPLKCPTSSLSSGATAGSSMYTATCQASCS

As for `CCc1cc(OCCCCn2cc(COCCOCCOCCOCCOCCOCCOCCOCCN)nn2)ccc1-c1ccc(C[C@H](NC(=O)[C@H](CC(=O)O)NC(=O)[C@H](CO)NC(=O)[C@@H](NC(=O)C(C)(Cc2ccccc2F)NC(=O)[C@@H](NC(=O)CNC(=O)[C@H](Cc2nn[nH]n2)NC(=O)C(C)(C)C(=O)NCCc2cnc[nH]2)[C@@H](C)O)[C@@H](C)O)C(=O)N[C@@H](CCCc2cc(C)cc(C)c2)C(N)=O)cc1` (stereo partly drawn) [LP11, NH2-PEG8-triazole-P8], the EC50 at human GLP1R [1] (Table 5C, read-out: GLP1R LUC EC50) is 0.016 nM; at human GLP1R [1] (Table 9, […], read-out: HEK293/Myc-hGLP1R/Cre-Luc EC50) it was 0.016 nM; in the series with HEK293/CRE-Luc cells it was greater than 200 nM. In the series on HEK293/CRE-Luc cells, the “HEK293/CRE-LUC S/N” value was 1.3. Moreover, the half-life at 2 µM in series [2] (pooled plasma, pH 7.4, Table 5C, read-out: Plasma Stability Human T½) was greater than 7 days; in series [2] (pooled plasma, pH 7.4, tested time C (3 days), 2 μM, 37° C., read-out: Human plasma stability assay T½ (converted)), greater than 7.23 days.
For `CCc1cc(OCCCCN)ccc1-c1ccc(C[C@H](NC(=O)[C@H](CC(=O)O)NC(=O)[C@H](CO)NC(=O)[C@@H](NC(=O)[C@](C)(Cc2ccccc2F)NC(=O)[C@@H](NC(=O)CNC(=O)[C@H](Cc2nn[nH]n2)NC(=O)C(C)(C)C(=O)NCCc2cnc[nH]2)[C@@H](C)O)[C@@H](C)O)C(=O)N[C@@H](CCCc2cc(C)cc(C)c2)C(N)=O)cc1` [P9, (8S,14S,17S,20S,23S,26S)-8-((2H-tetrazol-5-yl)methyl)-26-(((S)-1-(((S)-1-amino-5-(3,5-dimethylphenyl)-1-oxopentan-2-yl)amino)-3-(4′-(4-aminobutoxy)-2′-ethyl-[1,1′-biphenyl]-4-yl)-1-oxopropan-2-yl)carbamoyl)-17-(2-fluorobenzyl)-14,20-bis((R)-1-hydroxyethyl)-23-(hydroxymethyl)-1-(1H-imidazol-5-yl)-5,5,17-trimethyl-4,6,9,12,15,18,21,24-octaoxo-3,7,10,13,16,19,22,25-octaazaoctacosan-28-oic acid] ({Malonyl(2,2-Me2,histaminyl)}-[Ala(1H-tetrazol-5-yl)]GT[αMePhe(2-F)]TSD[Bip(2'-Et,4'-O(CH2)4NH2)][Nva(5-(3,5-Me2Ph))]-NH2), the EC50 at human GLP1R [1] (Table 9, 5.5 h, read-out: HEK293/Myc-hGLP1R/Cre-Luc EC50) was 0.00332 nM. In the series with HEK293/CRE-Luc cells, the EC50 was greater than 200 nM and the “HEK293/CRE-LUC S/N” value was 1.3. Besides, the S/N on human GLP1R [3] (setting [4]) is reported as 75.2. For the same compound, on human GLP1R [3], the EC50 was 0.00397 nM. On human GLP1R [3] (setting [5]), the “Relative Potency (% M2361 EC50)” value is reported as 133.8% and the “Relative Signal:Noise (% M2361)” value was determined as 114.3%. Also, the half-life at 2 µM in series [2] (plasma, pH 7.4, tested time A (1 day per footnote), 2 μM, 37° C., read-out: Human plasma stability assay T½ (converted)) is greater than 2.41 days.
Regarding `CCc1cc(OCCCCn2cc(COCCOCCOCCOCCOCCOCCOCCOCCN)nn2)ccc1-c1ccc(C[C@H](NC(=O)[C@H](CC(=O)O)NC(=O)[C@H](CO)NC(=O)[C@@H](NC(=O)[C@](C)(Cc2ccccc2F)NC(=O)[C@@H](NC(=O)CNC(=O)[C@H](Cc2nn[nH]n2)NC(=O)C(C)(C)C(=O)NCCc2cnc[nH]2)[C@@H](C)O)[C@@H](C)O)C(=O)N[C@@H](CCCc2cc(C)cc(C)c2)C(N)=O)cc1` [M3190], on human GLP1R [3] (setting [6]), the “Relative Potency (% M2361 EC50)” value was 44.0%, the “Relative Signal:Noise (% M2361)” value was found to be 96.4% and the S/N came out at 62.0. Moreover, the S/N at human GLP1R [3] (setting [4]) is recorded as 74.5. Also, the EC50 at human GLP1R [3] came to 0.0161 nM. On human GLP1R [3] (setting [5]), the “Relative Potency (% M2361 EC50)” value was 33.1% and the “Relative Signal:Noise (% M2361)” value stood at 113.3%.
